Assay results as given in patent publication US20100292260A1, “6-VINYL PYRIMIDINE AND PYRIMIDINONE DERIVATIVES AND THE USE THEREOF” (priority 2005, published 2010).
Where two headings read alike, the source gives them in different places.

Key:
[1] = molecular target: T1, reverse transcriptase containing the mutation K103N (Human immunodeficiency virus type 1 group M subtype B, UniProt P03366, K702N); test: Enzyme test with mutated reverse transcriptase K103N; type: biochemical, HIV-1
T1 construct: cloning the gene of the mutated RT in an expression vector for prokariotic cells; made in house
Description: (§1) In a final volume of 25 microlitres the following reagents were mixed: 50 mM Tris-HCl pH 7.5, 0.25 mg/ml BSA, 0.5 mM DTT, 20-50 nM HIV-1 (recombinant) reverse transcriptase, nucleotide substrate dTTP marked radioactively (^3H, 4 Ci/mmol) and nucleic acid (poly(rA)/oligo(dT)). The concentrations of dTTP and poly(rA)/oligo(dT) in standard conditions were 5 μM and 0.5 μM, respectively.
(§2) The reaction mixture is incubated 10 min. at 37° C. and 20 μl are removed and deposited on a GF/C Whatman glass fibre filter measuring 25 mm in diameter. The filters are washed 3 times for 5 min. in 5% trichloroacetic acid and once for 5 min. in absolute alcohol. After being dried, the filters are immersed in a scintillating mixture (Packard) and the acid precipitable radioactivity is measured by a scintillation counter for β-emitting isotopes (Beckman).
(§3) In some experiments, the HIV-1 recombinant reverse transcriptase was substituted by a reverse transcriptase containing the mutations K.103N and Y181I. They were produced by cloning the gene of the mutated RT in an expression vector for prokariotic cells according to the method reported in the literature (Maga G, Amacker M, Ruel N, Hubscher U, Spadari S. Resistance to nevirapine of HIV-1 reverse transcriptase mutants: loss of stabilizing interactions and thermodynamic or steric barriers are induced by different single amino acid substitutions. J Mol Biol. Dec. 19, 1997; 274(5):738-47).
(§4) The dose-response curves obtained by means of samples of enzyme activity in the presence of increasing doses of inhibitor were analysed according to the equation E(%)=Emax/([…], where E(%) is the fraction of enzyme activity that is measurable in the presence of each concentration of inhibitor, Emax is the activity in the absence of an inhibitor, I is the concentration of inhibitor. The ID50 was calculated by analysing data using the GraphPad Prism graphic interpolation programme (for Macintosh).

[2] = molecular target: T2, HIV-1 (recombinant) reverse transcriptase (Human immunodeficiency virus type 1 group M subtype B, UniProt P03366); test: Enzyme test: reverse transcription reaction in vitro with recombinant RT, wild type; type: biochemical
T2 construct: 20-50 nM HIV-1 (recombinant) reverse transcriptase
Description: as §1, §2, §4

[3] = molecular target: T3, reverse transcriptase containing the mutation Y181I (Human immunodeficiency virus type 1 group M subtype B, UniProt P03366, Y780I); test: Enzyme test with mutated reverse transcriptase Y181I; type: biochemical, HIV-1
T3 construct: cloning the gene of the mutated RT in an expression vector for prokariotic cells; made in house
Description: as §1, §2, §3, §4

[4] = system: wild strain of HIV-1 NL4-3; test: Inhibition of viral proliferation on culture cells (MT-4, MTT), wild strain; type: cell-based
Description: (§5) The biological activity of the compounds was evaluated on lymphoid cell lines MT-4 against the wild strain of HIV-1 NL4-3. The MT-4 cells were briefly infected with the appropriate HIV-1 or the infection was simulated to determine the cytoxicity, in the presence of different concentrations of potential inhibitor compounds. 5 days after the infection a colorimetric method was used that involves using a tetrazole salt (MTT) to evaluate the number of surviving cells. The mutant IRLL98 HIV-1 contains the following mutations in the coding sequence for RT:M41L, D67N, Y181C, M184V, R211K, T215Y (resistance to NRTI) and the mutations K101Q, Y181C, G190A (resistance to NNRTI). The H1V-1 mutants containing multi-NNRTI mutations, K103N or Y188L as mutants were supplied by the Medical Research Council Centralised Facility for AIDS Reagents, Herfordshire, UK.

HIV-1 mutant Y188L = test: Inhibition of viral proliferation on culture cells (MT-4, MTT), Y188L mutant; type: cell-based
Description: as §5

[5] = Cytotoxicity in mock-infected MT-4 cells (MTT); type: cell-based; conditions: human
Description: as §5

HIV-1 mutant Y181C = test: Inhibition of viral proliferation on culture cells (MT-4, MTT), Y181C mutant; type: cell-based
Description: as §5

HIV-1 mutant K103N = test: Inhibition of viral proliferation on culture cells (MT-4, MTT), K103N mutant; type: cell-based
Description: as §5

HIV-1 mutant Y181L = test: Inhibition of viral proliferation on culture cells (MT-4, MTT), Y181L mutant; type: cell-based; conditions: Human immunodeficiency virus 1, MT4, read-out: EC50 Y181L
[6] = Table 2, enzyme test, read-out: WT
[7] = Table 1, recombinant RT wild type, read-out: ID50 WT
[8] = Human immunodeficiency virus 1, NL43, read-out: NL4-3 wt
[9] = Human immunodeficiency virus 1, read-out: Y188L
[10] = Human immunodeficiency virus 1, read-out: Y181C
[11] = Human immunodeficiency virus 1, read-out: K100N

Row | SMILES | IC50 [1] [µM] | IC50 [2, 6] [µM] | IC50 [3] [µM] | activity in cell tests on wild type, in words [4] | EC50 [4, 8] [µM] | EC50 (HIV-1 mutant Y188L; [9]) [µM] | CC50 at 5 days [5] [µM] | EC50 (HIV-1 mutant Y181C; [10]) [µM] | EC50 (HIV-1 mutant K103N; [11]) [µM] | other results
1 | CCc1c(Cc2c(Cl)cccc2Cl)nc(SCC=Cc2ccc([N+](=O)[O-])cc2)[nH]c1=O [Compound 26f] | > 20 | 2.5 | > 20 | – | – | – | – | – | – | –
2 | C=Cc1nc(SC)nc(N(C)C)c1I [Compound 6a] | – | – | – | – | – | – | – | – | – | IC50 [2, 7]: > 400 µM
3 | COc1ccc(C=CCSc2nc(Cc3c(F)cccc3F)c(C)c(=O)[nH]2)cc1 [Compound 26l] | > 20 | 0.25 | > 20 | nanomolar and subnanomolar activity | 0.043 | > 3.93 | 3.93 | > 3.93 | > 3.93 | –
4 | Cc1c(Cc2c(F)cccc2F)nc(SCC#Cc2ccc([N+](=O)[O-])cc2)[nH]c1=O [Compound 27a, 6-(2,6-Difluorobenzyl)-2-(3-(4-nitrophenyl)-propynylsulfanyl)-5-methylpyrimidine-4(3H)-one] | – | – | – | – | – | > 58.6 | > 58.6 | > 58.6 | – | EC50 ([4]; Human immunodeficiency virus 1, NL43, read-out: NLA-3wt): 40.1 µM; IC50 ([2]; Table 3, enzyme test, read-out: WT): 0.416 µM; EC50 (HIV-1 mutant K103N; Human immunodeficiency virus 1, read-out: K103N): > 58.6 µM
5 | C=Cc1cc(N(CC)CC)nc(S(C)(=O)=O)n1 [MB3B, reference compound] | > 400 | – | > 400 | – | – | – | – | – | – | IC50 [2, 7]: 21.3 µM
6 | Cc1c(Cc2c(Cl)cccc2Cl)nc(SCC=Cc2ccc(N(C)C)cc2)[nH]c1=O [Compound 26d] | – | 0.788 | – | – | > 54.4 | > 54.4 | > 54.4 | > 54.4 | > 54.4 | –
7 | COc1ccc(C#CCSc2nc(C(C)c3c(Cl)cccc3Cl)c(C)c(=O)[nH]2)cc1 (racemic) [Compound 27b] | – | – | – | – | – | – | – | – | – | EC50 ([4]; Table 3, cell test, read-out: NLA-3wt): 0.5 µM; EC50 (HIV-1 mutant Y188L; Table 3, cell test, read-out: Y188L): 24.8 µM; EC50 (HIV-1 mutant Y181C; Table 3, cell test, read-out: Y181C): 33.5 µM; EC50 (HIV-1 mutant K103N; Table 3, cell test, read-out: K103N): > 54.5 µM
8 | COc1ccc(/C=C/CSc2nc(Cc3c(Cl)cccc3Cl)c(C)c(=O)[nH]2)cc1 [Compound 26a] | 9 | 0.007 | > 20 | nanomolar and subnanomolar activity | 0.015 | > 0.96 | 0.96 | > 0.96 | > 0.96 | activity in cell tests on mutant Y188L, in words (HIV-1 mutant Y188L): micromolar and submicromolar activity; activity in cell tests on mutant Y181C, in words (HIV-1 mutant Y181C): micromolar and submicromolar activity; activity in cell tests on mutant K103N, in words (HIV-1 mutant K103N): micromolar and submicromolar activity
9 | Cc1c(Cc2c(F)cccc2F)nc(SCC=Cc2ccc([N+](=O)[O-])cc2)[nH]c1=O [Compound 26i] | > 20 | 11.9 | > 20 | – | 0.26 | > 11.7 | 11.7 | > 11.7 | > 11.7 | –
10 | COc1ccc(C=CCSc2nc(C(C)c3c(F)cccc3F)c(C)c(=O)[nH]2)cc1 (stereo not drawn) [Compound 26n] | 3.7 | 0.292 | > 20 | nanomolar and subnanomolar activity | 0.0002 | 0.07 | > 11.7 | 0.13 | 0.26 | activity in cell tests on mutant Y188L, in words (HIV-1 mutant Y188L): micromolar and submicromolar activity; activity in cell tests on mutant Y181C, in words (HIV-1 mutant Y181C): micromolar and submicromolar activity; activity in cell tests on mutant K103N, in words (HIV-1 mutant K103N): micromolar and submicromolar activity
11 | CCc1c(Cc2c(Cl)cccc2Cl)nc(SCC=Cc2ccc(C#N)cc2)[nH]c1=O [Compound 26c] | – | 0.188 | – | – | 1.73 | – | > 54.8 | – | > 54.8 | Y181C, % at given concentration (HIV-1 mutant Y181C; Table 2, at 54.82): 41% at
12 | Cc1c(C(C)c2c(Cl)cccc2Cl)nc(SCC=Cc2ccc([N+](=O)[O-])cc2)[nH]c1=O (stereo not drawn) [Compound 26h] | > 20 | 0.102 | > 20 | – | – | – | – | – | – | –
13 | CCc1c(C(C)c2c(F)cccc2F)nc(SCC=Cc2ccc(OC)cc2)[nH]c1=O (stereo not drawn) [Compound 26p] | 0.4 | 0.016 | > 20 | nanomolar and subnanomolar activity | 0.0002 | 0.63 | 5.54 | 0.7 | 1.02 | activity in cell tests on mutant Y188L, in words (HIV-1 mutant Y188L): micromolar and submicromolar activity; activity in cell tests on mutant Y181C, in words (HIV-1 mutant Y181C): micromolar and submicromolar activity; activity in cell tests on mutant K103N, in words (HIV-1 mutant K103N): micromolar and submicromolar activity
14 | C=Cc1cc(N(C)C)nc(SC)n1 [Compound 6c] | – | – | – | – | – | – | 57.4 | – | – | EC50 ([4]; Human immunodeficiency virus 1, NL43, MT4, read-out: EC50 NL4-3 wt): > 128 µM; EC50 (HIV-1 mutant Y181L): > 128 µM; IC50 [2, 7]: > 400 µM; EC50 (HIV-1 mutant K103N; Human immunodeficiency virus 1, MT4, read-out: EC50 K103N): > 128 µM
15 | CCc1c(C(C)c2c(F)cccc2F)nc(SCC=Cc2ccc(C#N)cc2)[nH]c1=O (stereo not drawn) [Compound 26r] | – | 0.048 | – | – | 0.59 | > 27.2 | 27.2 | > 27.2 | > 27.2 | –
16 | CCc1c(Cc2c(Cl)cccc2Cl)nc(SCC=Cc2ccc(OC)cc2)[nH]c1=O [Compound 26e] | > 20 | 0.056 | > 20 | nanomolar and subnanomolar activity | 0.0015 | > 0.19 | 0.19 | > 0.19 | > 0.19 | –
17 | COc1ccc(C=CCSc2nc(C(C)c3c(Cl)cccc3Cl)c(C)c(=O)[nH]2)cc1 (stereo not drawn) [Compound 26g] | > 20 | 0.018 | > 20 | nanomolar and subnanomolar activity | 0.009 | 1.26 | > 10.8 | 3.6 | 2.47 | –
18 | CCc1c(C(C)c2c(F)cccc2F)nc(SCC=Cc2ccc([N+](=O)[O-])cc2)[nH]c1=O (stereo not drawn) [Compound 26q] | > 20 | 0.009 | > 20 | nanomolar and subnanomolar activity | 0.0004 | 1.94 | 5.75 | > 5.75 | > 5.75 | –
19 | Cc1c(Cc2c(Cl)cccc2Cl)nc(SCC=Cc2ccc([N+](=O)[O-])cc2)[nH]c1=O [Compound 26b] | > 20 | 3.81 | > 20 | – | > 10.8 | > 10.8 | > 10.8 | > 10.8 | > 10.8 | –
20 | Cc1c(C(C)c2c(F)cccc2F)nc(SCC=Cc2ccc(C#N)cc2)[nH]c1=O (stereo not drawn) [Compound 26o] | – | 0.161 | – | – | 0.14 | > 59.1 | > 59.1 | > 59.1 | > 59.1 | –
21 | Cc1c(C(C)c2c(F)cccc2F)nc(SCC=Cc2ccc([N+](=O)[O-])cc2)[nH]c1=O (stereo not drawn) [Compound 26m] | > 20 | 0.283 | > 20 | – | 0.14 | > 11.3 | > 11.3 | > 11.3 | > 11.3 | –
